Results from patent US8101576B2, “Compounds and their effects on feeding behaviour” (priority 2006, dated 2012).
Square brackets hold non-standard residues; d marks the D form. Ends that are not written are not given here. * marks the point of attachment. Arachidoyl = CCCCCCCCCCCCCCCCCCCC(=O)*; Palmitoyl = CCCCCCCCCCCCCCCC(=O)*; Myristoyl = CCCCCCCCCCCCCC(=O)*

Experiments:
[1] = Inhibition of food intake, intraperitoneal injection to fasted mice; assay type: in vivo, C57BL/6 mice
Experimental: (§1) Animals: All animal procedures were approved by the British Home Office Animals (Scientific Procedures) Act 1986 (Project License number 70/5516).
(§2) Study protocol: C57BL/6 mice (20-35 g) were injected with the peptide under investigation following a 20-hour fast. Wistar rats were injected following a 24-hour fast. […] A pre-weighed quantity of chow was presented immediately after injection.

[2] = Inhibition of food intake, subcutaneous injection to fasted rats; assay type: in vivo, Wistar rats; details: for food intake suppression continues for: 24 hours observed
Experimental: as §1, §2

With “D-His Ser Gln Gly Thr Phe Thr Ser Asp Tyr Ser Lys Tyr Leu Glu Glu Glu Leu Val Lys Tyr Phe Leu Gln Trp Leu Lys Asn Ala Gly Pro Ser Lys Asn Asn Ile Ala Glu Ala Lys-palmitoyl ([dH]SQGTFTSDYSKYLEEELVKYFLQWLKNAGPSKNNIAEAK(Palmitoyl)) [PEPTIDE NO: 213]” the “Mean cumulative food intake in comparison to saline control” value (“Mean cumulative food intake” below) ([1]; 400 nmoles/kg, over 48 hours) was “potent and long acting suppression of food intake” and the “food intake in comparison to control group treated with native oxyntomodulin” value (shortened to “food intake … with native oxyntomodulin”) ([1]; 400 nmoles/kg, over 48 hours) was “lower than in the control group treated with native oxyntomodulin”.
For “D-His Ser Gln Gly Thr Phe Thr Ser Asp Tyr Ser Lys Tyr Leu Glu Glu Glu Leu Val Lys Tyr Phe Leu Gln Trp Leu Lys Asn Ala Gly Pro Ser Lys Asn Asn Ile Ala Glu Ala Lys-arachidoyl ([dH]SQGTFTSDYSKYLEEELVKYFLQWLKNAGPSKNNIAEAK(Arachidoyl)) [PEPTIDE NO: 214]”, the “Mean cumulative food intake” value ([1]; 400 nmoles/kg, over 48 hours) was “potent and long acting suppression of food intake” and the “food intake … with native oxyntomodulin” value ([1]; 400 nmoles/kg, over 48 hours) was “lower than in the control group treated with native oxyntomodulin”.
For “D-His Ser Gln Gly Thr Phe Thr Ser Asp Tyr Ser Lys Tyr Leu Asp Ser Arg Arg Ala Gln Asp Phe Val Gln Trp Leu Lys Asn Ala Gly Pro Ser Lys Asn Asn Ile Ala ([dH]SQGTFTSDYSKYLDSRRAQDFVQWLKNAGPSKNNIA) [PEPTIDE NO: 195]”, the “Mean cumulative food intake” value ([1]; 800 nmoles/kg, over 24 hours) was “potent and long acting suppression of food intake” and the “food intake … with native oxyntomodulin” value ([1]; 800 nmoles/kg, over 24 hours) was “lower than in the control group treated with native oxyntomodulin”.
In the case of “D-His Ser Gln Gly Thr Phe Thr Ser Asp Tyr Ser Lys Tyr Leu Glu Glu Glu Leu Val Lys Tyr Phe Leu Gln Trp Leu Lys Asn Ala Gly Pro Ser Lys Asn Asn Ile Ala Glu Ala Lys-myristoyl ([dH]SQGTFTSDYSKYLEEELVKYFLQWLKNAGPSKNNIAEAK(Myristoyl)) [PEPTIDE NO: 211]”, the “Mean cumulative food intake” value ([1]; 200 nmoles/kg, over 48 hours) is reported as “potent and long acting suppression of food intake” and the “food intake … with native oxyntomodulin” value ([1]; 200 nmoles/kg, over 48 hours) is reported as “lower than in the control group treated with native oxyntomodulin”.
With “D-His Ala Asp Gly Thr Phe Thr Ser Asp Tyr Ser Lys Tyr Leu Glu Glu Glu Ile Val Lys Tyr Phe Ile Gln Trp Leu Met Asn Thr Lys Arg Asn Lys Asn Asn Ile Ala Lys ([dH]ADGTFTSDYSKYLEEEIVKYFIQWLMNTKRNKNNIAK) [PEPTIDE NO: 203]” the “food intake suppression continues for” value ([2]; 100 nmoles/kg) was ≥ 24 h, the “Mean cumulative food intake” value ([2]; 100 nmoles/kg, over 24 hours) was “potent and long acting suppression of food intake” and the “food intake … with native oxyntomodulin” value ([2]; 100 nmoles/kg, over 24 hours) was “lower than in the control group treated with native oxyntomodulin”.
For “D-His Ala Asp Gly Thr Phe Thr Ser Asp Tyr Ser Lys Tyr Leu Glu Gln Glu Ile Val Lys Tyr Phe Leu Gln Trp Leu Lys Asn Ala Gly Pro Ser Lys Asn Asn Ile Ala ([dH]ADGTFTSDYSKYLEQEIVKYFLQWLKNAGPSKNNIA) [PEPTIDE NO: 184]”, the “Mean cumulative food intake” value ([2]; 3 nmoles/kg, over 24 hours) was “potent and long acting suppression of food intake” and the “food intake … with native oxyntomodulin” value ([2]; 3 nmoles/kg, over 24 hours) was “lower than in the control group treated with native oxyntomodulin”.
In the case of “D-His Ser Gln Gly Thr Phe Thr Ser Asp Tyr Ser Lys Tyr Leu Glu Glu Glu Leu Val Lys Tyr Phe Leu Gln Trp Leu Lys Asn Ala Gly Pro Ser Lys Asn Asn Ile Ala Glu Ala Lys ([dH]SQGTFTSDYSKYLEEELVKYFLQWLKNAGPSKNNIAEAK) [PEPTIDE NO: 210]”, the “Mean cumulative food intake” value ([1]; 20 nmoles/kg, over 48 hours) is reported as “potent and long acting suppression of food intake” and the “food intake … with native oxyntomodulin” value ([1]; 20 nmoles/kg, over 48 hours) is reported as “lower than in the control group treated with native oxyntomodulin”.
In the case of “His Ser Gln Gly Thr Phe Thr Ser Asp Tyr Ser Lys Tyr Leu Glu Glu Glu Ile Val Lys Tyr Phe ILe Gln Trp Leu Lys Asn Ala Gly Pro Ser Lys Asn Asn Ile Ala (HSQGTFTSDYSKYLEEEIVKYFIQWLKNAGPSKNNIA) [PEPTIDE NO: 22]”, the “Mean cumulative food intake” value ([2]; 3 nmoles/kg, over 24 hours) is reported as “potent and long acting suppression of food intake” and the “food intake … with native oxyntomodulin” value ([2]; 3 nmoles/kg, over 24 hours) is reported as “lower than in the control group treated with native oxyntomodulin”.
In the case of “D-His Ser Gln Gly Thr Phe Thr Ser Asp Tyr Ser Lys Tyr Leu Glu Glu Glu Leu Val Lys Tyr Phe Leu Gln Trp Leu Lys Asn Ala Gly Pro Ser Lys Asn Asn Ile Ala ([dH]SQGTFTSDYSKYLEEELVKYFLQWLKNAGPSKNNIA) [PEPTIDE NO: 52]”, the “Mean cumulative food intake” value ([2]; 10 nmoles/kg, over 24 hours) is reported as “potent and long acting suppression of food intake” and the “food intake … with native oxyntomodulin” value ([2]; 10 nmoles/kg, over 24 hours) is reported as “lower than in the control group treated with native oxyntomodulin”.
In the case of “PEPTIDE NO: 216: analogue of oxyntomodulin with Asn34 replaced by Asp34; sequence shown only in FIG. 1 (HSQGTFTSDYSKYLEEELVKYFLEWLKNAGPSKDNIA)”, the “food intake suppression continues for” value ([2]; 10 nmoles/kg) is reported as ≥ 24 h, the “Mean cumulative food intake” value ([2]; 10 nmoles/kg, over 24 hours) is reported as “potent and long acting suppression of food intake” and the “food intake … with native oxyntomodulin” value ([2]; 10 nmoles/kg, over 24 hours) is reported as “lower than in the control group treated with native oxyntomodulin”.
In the case of “D-His Ala Asp Gly Thr Phe Thr Ser Asp Tyr Ser Lys Tyr Leu Glu Glu Glu Leu Val Lys Tyr Phe Ile Glu Trp Leu Met Asn Thr Lys Arg Asn Lys Asn Asn Ile Ala ([dH]ADGTFTSDYSKYLEEELVKYFIEWLMNTKRNKNNIA) [PEPTIDE NO: 153]”, the “Mean cumulative food intake” value ([2]; 200 mmoles/kg, over 24 hours) is reported as “potent and long acting suppression of food intake” and the “food intake … with native oxyntomodulin” value ([2]; 200 mmoles/kg, over 24 hours) is reported as “lower than in the control group treated with native oxyntomodulin”.
For “D-His Ala Gln Gly Thr Phe Thr Ser Asp Tyr Ser Lys Tyr Leu glu Glu Glu Leu Val Lys Tyr Phe Ile Gln Trp Leu Met Asn Thr Lys Arg Asn Lys Asn Asn Ile Ala ([dH]AQGTFTSDYSKYLEEELVKYFIQWLMNTKRNKNNIA; not fully specified (residue 15)) [PEPTIDE NO: 108]”, the “Mean cumulative food intake” value ([1]; 100 nmoles/kg, over 24 hours) was “potent and long acting suppression of food intake” and the “food intake … with native oxyntomodulin” value ([1]; 100 nmoles/kg, over 24 hours) was “lower than in the control group treated with native oxyntomodulin”.
With “D-His Ala Gln Gly Thr Phe Thr Ser Asp Tyr Ser Lys Tyr Leu Glu Gln Glu Ile Val Lys Tyr Phe Leu Gln Trp Leu Lys Asn Ala Gly Pro Ser Lys Asn Asn Ile Ala ([dH]AQGTFTSDYSKYLEQEIVKYFLQWLKNAGPSKNNIA) [PEPTIDE NO: 136]” the “Mean cumulative food intake” value ([1]; 5 nmoles/kg, over 24 hours) was “potent and long acting suppression of food intake” and the “food intake … with native oxyntomodulin” value ([1]; 5 nmoles/kg, over 24 hours) was “lower than in the control group treated with native oxyntomodulin”.
For “D-His Ala Asp Gly Thr Phe Thr Ser Asp Tyr Ser Lys Tyr Leu Glu Glu Glu Leu Val Lys Tyr Phe Ile Gln Trp Leu Lys Asn Gly Gly Pro Ser Lys Asn Asn Ile Ala Ala Ala Lys-arachidoyl ([dH]ADGTFTSDYSKYLEEELVKYFIQWLKNGGPSKNNIAAAK(Arachidoyl)) [PEPTIDE NO: 209]”, the “food intake … with native oxyntomodulin” value ([2]; 80 mmoles/kg, over 48 hours) was “lower than in the control group treated with native oxyntomodulin” and the “Mean cumulative food intake” value ([2]; over 48 hours) was “potent and long acting suppression of food intake”.
In the case of “HSQGTFTSDYSKYLEEELVKYFLQWLKNAGPSKNNIA [PEPTIDE NO: 4]”, the “Mean cumulative food intake” value ([1]; 5 nmoles/kg, over 24 hours) is reported as “potent and long acting suppression of food intake” and the “food intake … with native oxyntomodulin” value ([1]; 5 nmoles/kg, over 24 hours) is reported as “lower than in the control group treated with native oxyntomodulin”.
